The values below come from US20230365626A1, “Alloferon Peptide and Method Using the Same” (Industry Academy Cooperation Foundation of Sejong University, priority 2020, published 2023).

For assay [1], the system named is cerebral cortical nerve cells. Description: Zinpyr-1 staining (zinc in the lysosome). As to conditions: in combination with 1 μM TPEN, 4 hours. The format is cell-based, ICR mouse. The protocol: Subsequently, the present inventors measured the zinc concentration in the cells to determine what effect the treatment with the alloferon D-form peptides has on the zinc concentration in the lysosome. To this end, specifically, the cerebral cortical nerve cells were washed once with MEM, and then the MEM was replaced with MEM containing 5 μM zinpyr-1, an intracellular zinc marker (Cayman Chemical, USA, Ex=492 nm, Em=527 nm) and 75 nM lysotracker, and left at 37° C. for 30 minutes. Thereafter, it was washed with fresh MEM and treated with individual reagents (alloferon D-form peptides) according to the experimental conditions. Then, the cells were fixed with 4% PFA (pH 7.4) for 15 minutes, washed twice with PBS (Biowest, France), and photographed with a fluorescent microscope.

Assay [2] has as its system TFEB, cathepsin B, and cathepsin D. As to the kind of experiment: Western blot of TFEB, cathepsin B and cathepsin D expression. The format is cell-based, ICR mouse. As to conditions: 1 μM TPEN with 20 μM alloferon D-form peptide, 4 hours (FIG. 5B). As for the experimental part:
The cerebral cortex nerve cells of the mice were obtained by extracting the cerebrum from ICR mouse embryos of 13-14 day gestation. 6-7 hemispheres per culture dish were inoculated on 24-well culture dishes or 6-well culture dishes (SPL Life Science, South Korea) coated with 0.01% poly-D-lysine (Sigma, USA) prepared in advance. A cell culture medium, in which Dulbecco's Modified Eagle's Medium (DMEM, Gibco, USA) to which 20 mM glucose and 38 mM sodium bicarbonate were added and which was further supplemented with 5% fetal bovine serum (Hyclone, USA), 5% horse serum (Gibco, USA), and 1% glutamine, was used, and the cell culture medium was incubated in a cell incubator, in which the conditions of 37° C. and 5% CO2 were maintained, and was used in this experiment 10 to 12 days in vitro (DIV) after inoculation.
The present inventors had observed that the effect of enhancing the autophagic flux by the alloferon D-form peptides is achieved through the activity of cathepsin B and the decrease in the lysosomal pH, and thus, this time, the present inventors investigated through western blot analysis in order to find out whether there is a change in the amount of lysosomal protease expression. […]
(Immunoblotting shows a protein as a band on a membrane.)

As for `c1ccc(CN(CCN(Cc2ccccn2)Cc2ccccn2)Cc2ccccn2)nc1` [TPEN, N,N,N′,N′-tetrakis(2-pyridylmethyl)ethylene-diamine], the “Zinpyr-1 fluorescence increased by the alloferon D-form peptides” value in assay [1] is on record as “reduced”. Also, the “amounts of TFEB, cathepsin B, and cathepsin D” value in assay [2] was “reduced”.
